{"source": "patent US20240217957A1", "about": "“HETEROCYCLIC COMPOUND AND USE THEREOF” (TAKEDA PHARMACEUTICAL COMPANY LIMITED, priority 2022, published 2024)", "key": {"human OX2 receptor": {"biological_target": "T1, human OX2 receptor (Homo sapiens, UniProt O43614)", "T1 construct": "expressed in transfected cells", "T1 sequence (O43614 1-444)": "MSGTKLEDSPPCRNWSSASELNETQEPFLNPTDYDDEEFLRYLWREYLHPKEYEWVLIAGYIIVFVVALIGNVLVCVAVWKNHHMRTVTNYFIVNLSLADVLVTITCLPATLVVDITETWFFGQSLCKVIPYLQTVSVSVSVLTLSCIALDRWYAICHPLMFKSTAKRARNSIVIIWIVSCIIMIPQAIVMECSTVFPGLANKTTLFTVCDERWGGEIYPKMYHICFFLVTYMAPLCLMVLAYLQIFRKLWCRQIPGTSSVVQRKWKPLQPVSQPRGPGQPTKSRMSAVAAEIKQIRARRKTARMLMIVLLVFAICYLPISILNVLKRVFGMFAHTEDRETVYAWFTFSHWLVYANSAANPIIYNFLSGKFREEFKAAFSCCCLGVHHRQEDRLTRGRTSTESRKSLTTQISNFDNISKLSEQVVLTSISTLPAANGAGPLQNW", "assay": "Measurement of orexin type 2 receptor agonist activity (calcium fluorescence, Fluo-4 AM, FDSS)", "type": "cell-based", "conditions": "compound at 3 μM; CHO cells forcibly expressing human OX2 receptor; DMSO = 0%, 10 nM orexin A (human) = 100%", "outline": "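Agonist response is expressed as % of the fluorescence change given by 10 nM human orexin A, with DMSO as 0%, read over 1 min 40 s on FDSS after compound addition. Cells: stable human OX2 (1-444) CHO-K1 clones, dye-loaded with Fluo-4 AM plus probenecid in HEPES-buffered HBSS with 0.1% BSA.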"}, "cynomolgus monkeys": {"tested_on": "cynomolgus monkeys", "assay": "Evaluation of wake-promoting effects in cynomolgus monkeys (EEG, EMG, locomotor activity)", "type": "in vivo, cynomolgus monkey", "conditions": "3 mg/kg p.o. at zeitgeber time 12, male cynomolgus monkeys, time spent in wakefulness for 4 hours after administration", "method": "The wake-promoting effects were evaluated by measuring the electroencephalogram (EEG), electromyogram (EMG) and locomotor activity in cynomolgus monkeys. Under isoflurane anesthesia (0.5-5%, Pfizer Japan Inc., Tokyo, Japan), male cynomolgus monkeys (2-3 years old, Hamri Co., Ltd., Ibaraki, Japan) were surgically implanted with radio-telemetry transmitters (L03-F3, Data Sciences International Inc., MN, USA). The two EEG electrodes were stereotaxically positioned at the parietal area and secured to the cranium with stainless-steel screws in contact with the dura. Bilateral EMG electrodes were implanted into the back cervical muscles.\nAfter at least a 1-month recovery period in home cages, the monkeys were habituated to the recording chamber (an acrylic cage 60 W×55 D×75 H (cm)) located in a soundproof and electrically shielded room by the time animals sleep sufficiently in the experimental room. Cortical EEG, EMG and locomotor activity were recorded using the telemetry system (PhysioTel Digital telemetry platform, Data Sciences International Inc.). The signals were semi-automatically scored in 20-second epochs by a sleep scoring system (SleepSign, Kissei Comtec Co., Ltd., Nagano, Japan).\nTest compound (3 mg/kg) suspended in 0.5% methylcellulose aqueous solution or vehicle (i.e., 0.5% methylcellulose aqueous solution) was administered orally (p.o.) to monkeys at zeitgeber time 12 in a volume of 5 mL/kg body weight with a pretest-posttest design (n=2), and then EEG, EMG and locomotor activity were recorded. The time spent in wakefulness for 4 hours after administration (% of vehicle treatment) was calculated by using SleepSign."}}}
{"smiles": "Cc1cnc([C@@H]2CC(N3C[C@@H](NS(C)(=O)=O)C(F)(F)C3)=NO2)c(-c2c(F)cc(F)cc2F)c1", "note": "[Example 11, N-[(3R)-4,4-difluoro-1-{(5S)-5-[5-methyl-3-(2,4,6-trifluorophenyl)pyridin-2-yl]-4,5-dihydro-1,2-oxazol-3-yl}pyrrolidin-3-yl]methanesulfonamide]", "values": [{"measurement": "OX2R agonist activity (3 μM, %)", "setting": "human OX2 receptor", "value": 96, "unit": "%"}, {"measurement": "Wakefulness time (% of vehicle treatment) (Mean, n = 2)", "setting": "cynomolgus monkeys", "value": "638.80 % of vehicle treatment"}]}
{"smiles": "CS(=O)(=O)N[C@@H]1CN(C2=NO[C@](CF)(c3ncc(F)cc3-c3c(F)cccc3F)C2)CC1(F)F", "note": "[Example 109, N-[(3R)-1-{(5S)-5-[3-(2,6-difluorophenyl)-5-fluoropyridin-2-yl]-5-(fluoromethyl)-4,5-dihydro-1,2-oxazol-3-yl}-4,4-difluoropyrrolidin-3-yl]methanesulfonamide]", "values": [{"measurement": "OX2R agonist activity (3 μM, %)", "setting": "human OX2 receptor", "value": 101, "unit": "%"}, {"measurement": "Wakefulness time (% of vehicle treatment) (Mean, n = 2)", "setting": "cynomolgus monkeys", "value": "558.37 % of vehicle treatment"}]}
{"smiles": "O=S(=O)(CF)N[C@@H]1CN(C2=NO[C@](CF)(c3ncc(F)cc3-c3c(F)cccc3F)C2)CC1(F)F", "note": "[Example 149, N-[(3R)-1-{(5S)-5-[3-(2,6-difluorophenyl)-5-fluoropyridin-2-yl]-5-(fluoromethyl)-4,5-dihydro-1,2-oxazol-3-yl}-4,4-difluoropyrrolidin-3-yl]-1-fluoromethanesulfonamide]", "values": [{"measurement": "OX2R agonist activity (3 μM, %)", "setting": "human OX2 receptor", "value": 96, "unit": "%"}, {"measurement": "Wakefulness time (% of vehicle treatment) (Mean, n = 2)", "setting": "cynomolgus monkeys", "value": "282.21 % of vehicle treatment"}]}
{"smiles": "C[C@@]1(c2ncc(F)cc2-c2c(F)cccc2F)CC(N2C[C@@H](NS(C)(=O)=O)C(F)(F)C2)=NO1", "note": "[Example 165, N-[(3R)-1-{(5S)-5-[3-(2,6-difluorophenyl)-5-fluoropyridin-2-yl]-5-methyl-4,5-dihydro-1,2-oxazol-3-yl}-4,4-difluoropyrrolidin-3-yl]methanesulfonamide]", "values": [{"measurement": "OX2R agonist activity (3 μM, %)", "setting": "human OX2 receptor", "value": 100, "unit": "%"}, {"measurement": "Wakefulness time (% of vehicle treatment) (Mean, n = 2)", "setting": "cynomolgus monkeys", "value": "716.25 % of vehicle treatment"}]}
{"smiles": "Cc1cc(F)c(C2CC(N3C[C@H](F)[C@H](NS(C)(=O)=O)C3)=NO2)c(-c2ncc(F)cc2F)c1", "note": "(stereo partly drawn) [Example 178, N-[(3R,4S)-1-{5-[2-(3,5-difluoropyridin-2-yl)-6-fluoro-4-methylphenyl]-4,5-dihydro-1,2-oxazol-3-yl}-4-fluoropyrrolidin-3-yl]methanesulfonamide]", "values": [{"measurement": "OX2R agonist activity (3 μM, %)", "setting": "human OX2 receptor", "value": 111, "unit": "%"}]}
